Several values for one entry are separate records, joined by “and”; a condition that tells them apart may be missing. Equal values may be shown once. Entries after “also recorded” stand apart in the source; their conditions may differ. Read-outs that look alike come from different tables or passages of the source.
Assays:
[1] = system: lung cancer cells with wild-type Rb; conditions: exposure to 17-AAG; cited from earlier work
[2] = Plasma pharmacokinetics of 17-AAG and 17-AG in the open-label dose escalating trial in MM patients; conditions: for Cmax: iv
Experimental: The total number of PK samples collected was approximately 110 mL of whole blood (7-8 tablespoons). If a patient experienced a potentially drug-related SAE, additional PK samples were collected. Blood was drawn from the contralateral arm to the infusion site using an indwelling catheter to avoid multiple needle sticks. […] The blood tube was inverted several times, and the tube placed in wet ice immediately pending separation of the plasma. If a catheter was used for blood collection, the fluid in the catheter was completely withdrawn prior to each sample collection and discarded. Plasma samples were kept on wet ice during collection and centrifugation. Plasma samples were split into two cryovials prior to freezing at −70° C.
The PK analysis was performed as follows. […] PK parameters were calculated on plasma concentration time data by non-compartmental analysis using Kinetica version 4.3 software (Innaphase, Champs sur Marne, France). AUC was calculated by the mixed log-linear rule: the linear rule was applied to the range where concentration was ascending and the log-linear rule was applied to the range where the concentration was descending. AUClast is the area from t=0 to tlast, the last sampling time. AUCextra is the extrapolated area from AUClast to infinity and AUCtotal=AUClast+AUCextra and is also named AUC0-∞ area under the concentration-time curve from time zero to infinity. The terminal rate constant λz was calculated on at least three points on the elimination curve with values greater than the lower limit of quantitation. […] Table 5 lists the areas, Cmax, and half-life for the metabolite 17-AG (mean±one standard deviation). […] There was no dose dependency for half-life, clearance or distributive volumes for these dose administrations.

[3] = dose levels studied; cited from earlier work
plasma protein = experiment: Plasma protein binding, in vitro assays using human blood
[4] = Dose limiting toxicity and drug-related toxicities in the MM trial
From the text: Non-Hematologic toxicities comprise: (1) any≧Grade 3 non-hematologic toxicity (except Grade 3 injection site reaction, alopecia, anorexia, fatigue), (2) nausea, diarrhea and/or vomiting of Grade≧3 despite the use of maximal medical intervention and/or prophylaxis, and/or (3) treatment delay of more than 4 weeks due to prolonged recovery from a drug-related toxicity.
The doses and schedule of study drug were as follows. […] Subsequent patient cohorts were enrolled per the escalation scheme outlined in the table below, as supported by observed toxicities. […] If one of three evaluable patients experienced a DLT, then the cohort was increased to six evaluable patients. If two or more of six evaluable patients in a cohort experienced a DLT, then the MTD was deemed to have been exceeded; all further accrual was at the previous dose level. If no more than one of the six patients experienced a DLT, then the next dose level was evaluated.

CD138+ myeloma cells = experiment: Abnormal mitochondrial potential (apoptosis) of CD138+ cells from bone marrow aspirates; format: in vivo, human
From the text: PD assessment included the following tests: The occurrence of specific toxicities (e.g., severity, duration and reversibility) was compared to PK parameters (e.g., clearance, exposure, elimination half-life, maximal plasma concentration, and time above a target plasma concentration). These toxicities included hepatotoxicity and gastrointestinal toxicities. The laboratory correlates included a) surface expression of insulin-like growth factor receptor-1 (IGF-1R) and b), total expression of Akt, Hsp90 and Hsp70. […] Immunoblotting analyses were used to evaluate the total levels of Akt, Hsp90 and Hsp70. […] Finally, peripheral blood mononuclear cells were isolated on two occasions (the first and last infusion in Cycle 1, on Days 1 and 11) prior to and 4 hours following the infusion. Cells were examined for change in client protein expression by Western Blot. Client proteins of interest include Hsp70, RAF1, LCK and CDK4 and others as indicated.
MM cells were purified by a Fluorescence Activated Cell Sorter (FACS) from the BMA based upon CD138 expression. These CD138^+ cells collected were then tested for abnormal mitochondrial potential by measuring mitochondrial potential in plasma cells using […] (BD Biosciences, San Jose, Calif.). […] Abnormal mitochondrial potential is observed prior to apoptosis of that cell (programmed cell death).

cell kill = conditions: in vitro and in vivo xenograft models; cited from earlier work
[5] = weekly dosing schedule; cited from earlier work
Hsp70 = conditions: 320-450 mg/m^2/week; cited from earlier work
metastatic melanoma = conditions: cited from earlier work
[6] = weekly 17-AAG, 3 weeks out of a 4 week cycle; cited from earlier work
breast cancer cells = conditions: exposure to 17-AAG; cited from earlier work
advanced solid tumors = conditions: patients with advanced solid tumors; cited from earlier work
CDK4 = conditions: at 24 hours; cited from earlier work

C=CCNC1=C2C[C@@H](C)C[C@H](OC)[C@H](O)[C@@H](C)/C=C(\C)[C@H](OC(N)=O)[C@@H](OC)/C=C\C=C(/C)C(=O)NC(=CC1=O)C2=O [17-AAG, 17-Allylamino-17-demethoxygeldanamycin]
effect on client proteins [1]: degradation of cdk4, cdk6, and cyclin E
clearance CL for 17-AAG, individual patients ([2]; 220 mg/m^2, the two patients with metabolite in trough levels on Day 11): 16.8 L/h/m^2 and 17.3 L/h/m^2
clearance CL for 17-AAG, average for the cohort ([2]; 220 mg/m^2 cohort): 25.3±9.6 L/h/m^2
AUCtotal ([2]; 17-AAG 150 mg/m^2, mean ± SD): 5,592 ± 757 ng/mL * h
Terminal T1/2 ([2]; 17-AAG 150 mg/m^2, mean ± SD): 2.19 ± 0.58 h
Vss ([2]; 17-AAG 150 mg/m^2, mean ± SD): 170.9 ± 41.7 L
clearance ([2]; 17-AAG 150 mg/m^2, mean ± SD): 915.3 ± 113 mL/min
AUCtotal ([2]; 17-AAG 220 mg/m^2, mean ± SD): 9,460 ± 3,788 ng/mL * h
Vss ([2]; 17-AAG 220 mg/m^2, mean ± SD): 139.1 ± 45.7 L
Vz ([2]; 17-AAG 220 mg/m^2, mean ± SD): 171.0 ± 67.1 L
AUCtotal ([2]; 17-AAG 275 mg/m^2, mean ± SD): 13,803 ± 1,540 ng/mL * h
Vz ([2]; 17-AAG 275 mg/m^2, mean ± SD): 159.6 ± 54.4 L
AUCtotal ([2]; 17-AAG 340 mg/m^2, mean ± SD): 18,997 ± 4,195 ng/mL * h
Vz ([2]; 17-AAG 340 mg/m^2, mean ± SD): 174.0 ± 71.2 L
change of AUCtotal between Day 1 and Day 11 ([2]; 17 patients, first vs fourth infusion): no increase in AUCtotal between Day 1 and Day 11
dose proportionality of Cmax ([2]; 150-340 mg/m^2 17-AAG): increased in an approximately dose proportional manner
half-life ([2]; human, in vivo): 2.19 to 3.68 h
AUC(0-t) ([2]; human, in vivo, 150 mg/m2): 5300 ng·h/mL
Vd ([2]; human, in vivo, 150 mg/m2, Vz, 17-AAG 150 mg/m^2, mean ± SD): 170 ± 30.3 L
AUC(0-t) ([2]; human, in vivo, 220 mg/m2): 9160 ng·h/mL
half-life ([2]; human, in vivo, 220 mg/m2): 2.68 ± 0.99 h
clearance ([2]; human, in vivo, 220 mg/m2, Clearance, 17-AAG 220 mg/m^2, mean ± SD): 780 mL/min
AUC(0-t) ([2]; human, in vivo, 275 mg/m2): 13400 ng·h/mL
half-life ([2]; human, in vivo, 275 mg/m2): 2.96 ± 1.34 h
clearance ([2]; human, in vivo, 275 mg/m2, Clearance, 17-AAG 275 mg/m^2, mean ± SD): 661 mL/min
Vd ([2]; human, in vivo, 275 mg/m2, Vss, 17-AAG 275 mg/m^2, mean ± SD): 123 ± 23.4 L
AUC(0-t) ([2]; human, in vivo, 340 mg/m2): 18700 ng·h/mL
half-life ([2]; human, in vivo, 340 mg/m2): 3.3 ± 0.83 h
clearance ([2]; human, in vivo, 340 mg/m2, Clearance, 17-AAG 340 mg/m^2, mean ± SD): 595 mL/min
Vd ([2]; human, in vivo, 340 mg/m2, Vss, 17-AAG 340 mg/m^2, mean ± SD): 101 ± 27.7 L
clearance ([2]; human, in vivo, CL, present study, overall): 792 mL/min
clearance ([2]; human, in vivo, Total systemic clearance, range of cohort means, across dose administrations): 636 to 915 mL/min
Vd ([2]; human, in vivo, distributive volume (Vss), range of cohort means, across dose administrations): 123 to 171 L
Vd ([2]; human, in vivo, distributive volume (Vz), range of cohort means, across dose administrations): 160 to 204 L
Cmax ([2]; human, in vivo, 150 mg/m2): 2400 ng/mL
Cmax ([2]; human, in vivo, 220 mg/m2): 4670 ng/mL
Cmax ([2]; human, in vivo, 275 mg/m2): 6820 ng/mL
Cmax ([2]; human, in vivo, 340 mg/m2): 9360 ng/mL
Vss ([2]; present study, overall): 144.45 ± 43.51 L
relation of dose and area under the curve (AUC) [3]: linear correlation
protein bound in plasma (plasma protein): approximately 95%
DLT ([4]; 150 mg/m^2, four patients): DLT was not observed in any of these four patients
DLT ([4]; 220 mg/m^2, seven evaluable patients): DLT was observed in one patient; the DLT was liver infiltration of plasma cells with a Grade 3 elevated ALT
DLT ([4]; 275 mg/m^2 twice weekly two of three weeks, three patients): DLT was not observed in any of these three patients; also recorded: without reaching dose limiting toxicity
drug-related toxicities other than the single Grade 3 elevated ALT ([4]; all dose levels): Grade 1-2 elevated transaminases, nausea, fatigue, diarrhea, anemia, myalgias and rash
percent of CD138+ cells with abnormal mitochondrial potential in BM (CD138+ myeloma cells; Day 11 of treatment (less than 5% prior to treatment), p=0.06, FIG. 9): more than 40%
increase in percent of cells with abnormal mitochondrial potential (CD138+ myeloma cells; Day 11 versus prior to treatment): more than 35%
apoptosis in BMAs (CD138+ myeloma cells; screening versus Day 11, 150 and 220 mg/m^2 doses): increased apoptosis; also recorded: increase in apoptosis
concentrations needed to achieve cell kill (cell kill): 10 to 500 nM
Vss [5]: 130 ± 50 L
t1/2 [5]: 2.98 ± 1.0 h
patients with induction of the co-chaperone protein Hsp70 (Hsp70): 8 of 9
complete or partial responses (metastatic melanoma; once weekly schedule): No complete or partial responses were recorded
stable disease (metastatic melanoma; patients treated at 320-450 mg/m^2): two showed radiologically documented long term stable disease
MTD [6]: 308 mg/m^2
effect on client proteins (breast cancer cells): depletion of steroid receptors
objective tumor responses (advanced solid tumors): No objective tumor responses have been observed
patients with depletion of CDK4 in tumor biopsies (CDK4): 8 out of 9

Reference: patent US7691392B2 (Kosan Biosciences Incorporated, priority 2005, dated 2010)
